“Also recorded” adds a separate entry of the source. Where two headings read alike, the source gives them in different places.

The nature of data set [1]: DPPH radical scavenger assay (cell-free). To be noted: for DPPH radicals scavenged: 100 µM. The method, then:
DPPH radical scavenging activity of compounds was tested as described.
Compounds were dissolved in MeOH, and the solutions (160 µL) were dispensed into wells of a 96-well microplate. In all, 40 µL of the DPPH (Sigma-Aldrich, Steinheim, Germany) solution in MeOH (1.5 × 10^−4 M) was added to each well. Concentrations of compounds in mixture were 10 and 100 µM. The mixture was shaken and left to stand for 30 min, and the absorbance of the resulting solution was measured at 520 nm with a microplate reader MultiscanFC (ThermoScientific, Waltham, MA, USA). Radical scavenging activity of all compounds at 100 µM were presented as percent of MeOH data, and the concentration of DPPH radical scavenging at 50% (EC50) was calculated for some compounds.
For orientation: Loss of DPPH colour is used to gauge radical scavenging.

Data set [2] can be described thus: Cell viability (cytotoxicity) assay, MTT. Type of data set: cell-based. To be noted: mouse, Neuro2a neuroblastoma cells; Neuro2a cells, 24 h, MTT. The method, then: (§1) The neuroblastoma cell line Neuro2a was purchased from ATCC. Cells were cultured in DMEM medium containing 10% fetal bovine serum (Biolot, St. Petersburg, Russia) and 1% penicillin/streptomycin (Invitrogen, Carlsbad, CA, USA). Cells were incubated at 37 °C in a humidified atmosphere containing 5% (v/v) CO2.
(§2) Cell suspension (1 × 10^3 cells/well) was incubated with different concentration of compounds for 24 h. After that, cell viability was determined using the MTT (3-(4,5-dimethylthiazol-2-yl)-2,5- diphenyltetrazolium bromide) method, according to the manufacturer’s instructions (Sigma-Aldrich, St. Louis, MO, USA). The results were presented as percent of control data, and concentration required for 50% inhibition of cell viability (IC50) was calculated.

Data set [3] concerns neuroblastoma Neuro2a cells. Nature of the data set: Cell viability (cytotoxicity) assay, MTT. Type of data set: cell-based. To be noted: up to 100 µM. As to the method: as §1, §2
Data set [4] relates to Neuro2a cells treated with 6-OHDA. In words: 6-Hydroxydopamine-induced in vitro model of Parkinson's disease, cell viability (MTT). Type of data set: cell-based. To be noted: for Neuroprotective effect in 6-OHDA model at tenfold reduced concentration: 1 µM (concentration reduced tenfold); for Effect on 6-OHDA-treated cell viability: 10 µM. As to the method: The neuroprotective activities of compounds in 6-hydroxydopamine-induced cell model of Parkinson’s disease were examined, as described previously.
Neuroblastoma Neuro2a line cells (1 × 10^3 cells/well) were treated with 50 µM of 6-hydroxydopamine (Sigma-Aldrich, St. Louis, MO, USA) for 1 h and, after that, the investigated compounds were added to the neuroblastoma cell suspension at a concentration of 1 and 10 µM. In the other case, the substances were added to the cells 1 h before the addition of the neurotoxin. Cells incubated without 6-OHDA and compounds, and with 6-OHDA only, were used as positive and negative controls, respectively. After 24 h, viability of cells was measured using the MTT method. The results were presented as a percent of positive control data.

Data set [5] relates to Neuro2a cells treated with PQ. In words: Paraquat-induced in vitro model of Parkinson's disease, cell viability (MTT). It counts as cell-based. As to conditions: added 1 h before PQ (500 µM). The method, then: Neuroblastoma Neuro2a line cells (1 × 10^3 cells/well) were treated with compounds at concentrations of 1 and 10 µM for 1 h, and then 500 µM of paraquat (Sigma-Aldrich, St. Louis, MO, USA) was added to the neuroblastoma cell suspension. Cells incubated without paraquat and compounds, and with paraquat only, were used as positive and negative controls, respectively. The viability of cells was measured after 24 h using the MTT method. The results were presented as percent of positive control data.

Data set [6] deals with ROS formation in Neuro2a cells treated with 6-OHDA. Nature of the data set: ROS level analysis in 6-OHDA-treated cells. Type of data set: cell-based. To be noted: for Reduction of ROS level in 6-OHDA-treated cells / Effect on ROS formation in 6-OHDA-treated cells: 10 µM, 6-OHDA 50 µM, 30 min. As to the method: (§3) Cell suspensions (1 × 10^3 cells/well) were incubated with compound solutions (10 µM) for 1 h. Then, 6-OHDA at a concentration of 50 µM was added in each well, and cells were incubated for 30 min. In other experiments, cells were incubated with PQ at a concentration of 500 µM for 30 min and 1 h. Cells incubated without 6-OHDA/PQ and compounds, and with 6-OHDA/PQ only, were used as positive and negative controls, respectively. To study ROS formation, 20 µL of 2,7-dichlorodihydrofluorescein diacetate solution (Molecular Probes, Eugene, OR, USA) was added to each well, such that the final concentration was […], and the microplate was incubated for an additional 10 min at 37 °C. The intensity of dichlorofluorescein fluorescence was measured with plate reader PHERAstar FS (BMG Labtech, Ortenberg, Germany) at λex = 485 nm, and λem = 518 nm. The data were processed by MARS Data Analysis v. 3.01R2 (BMG Labtech, Ortenberg, Germany). The results were presented as a percentage of positive control data.

Data set [7] relates to ROS formation in Neuro2a cells treated with paraquat (PQ). Nature of the data set: ROS level analysis in PQ-treated cells. Type of data set: cell-based. As to conditions: for Decrease of ROS formation in PQ-treated cells: added 1 h before PQ (500 µM, 1 h). The method, then:
as §3, with “Cell suspensions (1 × 10^3 cells/well) were incubated with compound solutions (10 µM) for 1 h.” left out

The next data set deals with Candida albicans. To be noted: cited from earlier work.
For data set [8], the system named is osteoclast differentiation. As to conditions: cited from earlier work.
A further data set concerns HL-60 tumor cells. As to conditions: read-out: Cytotoxic activity IC50; cited from earlier work.
Another data set deals with A-549 tumor cells. As to conditions: read-out: Cytotoxic activity IC50; cited from earlier work.
A further data set has as its system P-388 tumor cells. As to conditions: read-out: Cytotoxic activity IC50; cited from earlier work.
The conditions of data set [9]: cited from earlier work.
For data set [10], the system named is dopaminergic neuronal cell death in mouse PD model, nigral neurons, SH-SY5Y cells. As to conditions: cited from earlier work.
The test system of data set [11] is PC12 cells. To be noted: cited from earlier work.
Data set [12] has as its system PC12 cells. As to conditions: pre-treating for 3 h; cited from earlier work.
The test system of data set [13] is MPTP-treated neuroblastoma cells. To be noted: cited from earlier work.
The next data set concerns KB tumor cells. To be noted: read-out: Cytotoxic activity IC50; cited from earlier work.
The next data set deals with A 549 tumor cells. To be noted: read-out: Cytotoxic activity IC50; cited from earlier work.
Setting [14] is: compound added 1 h before 6-OHDA.
[15] abbreviates: read-out: DPPH scavenger activity IC50.
[16] abbreviates: compound added 1 h after 6-OHDA.

As usually defined, the IC50 is the point on the concentration scale where inhibition reaches its midpoint. Regarding `CN1C(=O)C(Cc2c(O)cccc2O)NC(=O)C1Cc1ccccc1` (stereo not drawn) [Compound 6, mactanamide], in [1], the “DPPH radicals scavenged” value stood at 15%. Further, in data set [2], the IC50 at 24 h is over 100 µM. The “Cytotoxicity against Neuro2a cells” value in data set [3] is “not cytotoxic; also recorded: non-cytotoxic”. Also, the “Neuroprotective effect in 6-OHDA model at tenfold reduced concentration” value in data set [4] is reported as “neuroprotective effect was preserved”. In addition, the “Effect on viability of PQ-treated cells” value in data set [5] was “did not show any neuroprotective activity”. Besides, the “Reduction of ROS level in 6-OHDA-treated cells” value (shortened to “Reduction of ROS level”) in data set [6] is on record as 30%. Moreover, the “Decrease of ROS formation in PQ-treated cells” value (shortened to “Decrease of ROS formation”) in data set [7] (1 µM) came to 32%; in [7] (10 µM), 37%. For the same compound, in the data set on Candida albicans, the “Activity against Candida albicans” value is recorded as “fungistatic activity”. In addition, in [8], the “Influence on osteoclast differentiation” value is on record as “influence on osteoclast differentiation without any cytotoxicity”.
`COc1c(-c2ccc(O)cc2)cc(OC)c2c1oc1cc(O)c(O)cc12` [Compound 4, candidusin A]: the “DPPH radicals scavenged” value in [1] stood at 32%. Also, in data set [2], half-maximal inhibition (IC50 at 24 h) required 75.7 ± 5.6 µM. In addition, the “Effect on 6-OHDA-treated cell viability” value in data set [4] (setting [14]) was “had no effect”. Also, in data set [5], the “Effect on viability of PQ-treated cells” value is reported as “did not have any effect”. Besides, the “Effect on ROS formation in 6-OHDA-treated cells” value in data set [6] is listed as “did not have any effect”. In addition, in data set [7] (10 µM), the “Decrease of ROS formation” value came to 27%. The figures for the IC50 in the data set with HL-60 tumor cells, in the data set on A-549 tumor cells and with P-388 tumor cells were 77.6 µM, 19.3 µM and 46.8 µM, respectively.
Turning to cryptoechinulin D, the IC50 in data set [9] (setting [15]) was 23.6 µM.
On to `COC(=O)[C@]12Oc3ccc(-c4ccc5c(c4O)C(=O)C4=C(O)C[C@@H](C)[C@H](O)[C@@]4(C(=O)OC)O5)c(O)c3C(=O)C1=C(O)C[C@@H](C)[C@@H]2O` [Secalonic acid A], for which the “Protection against MPTP-induced dopaminergic neuronal cell death” value in data set [10] was “protected”.
Consider `C[C@H]1CO[C@]2(C)Oc3cc(O)c4c(c3C[C@H]12)O[C@@]1(C)OC[C@H](C)[C@H]1C4` [Xyloketal B], for which the “Free radical scavenging in DPPH assay” value in data set [9] is reported as “scavenged free radicals”. Further, in the data set with PC12 cells [11], the “Protection of PC12 cells against ischemia-induced cell injury and MPTP-induced neurotoxicity” value is “protected”.
`COc1ccc2[nH]cc(CCNC(C)=O)c2c1` [Compound 1a, Melatonin, reference compound]: the figures for the “Effect on 6-OHDA-treated cell viability” value in data set [4] (setting [16]) and in data set [4] (setting [14]) were “did not increase the viability” and “did not increase the viability; also recorded: ineffective”, respectively. For the same compound, the “Effect on ROS formation in 6-OHDA-treated cells” value in data set [6] is “decreased ROS formation in the 6-OHDA-treated neuronal cell stronger in comparison with 1”. Moreover, in data set [7] (10 µM), the “Decrease of ROS formation” value was determined as 22%. Besides, in the data set with PC12 cells [12], the “Viability of PC12 cells in 6-OHDA-induced PD model” value is “increased viability of the cells, and prevented apoptosis”. Also, the “Caspase-3 enzyme activity, DNA fragmentation factor 45 cleavage and DNA fragmentation” value in [13] is “diminished”.
A word on the EC50: it is the concentration giving half of the maximal effect. Read a low EC50 as higher potency in that assay. Take `COc1c(-c2ccccc2)cc(OC)c2c1oc1cc(O)c(O)cc12` [Compound 5, 4″-dehydroxycandidusin A]: the “DPPH radicals scavenged” value in [1] is recorded as 49%. The same compound showed an EC50 in [1] (concentration of DPPH radical scavenging at 50%) of 101 ± 2.8 µM. In addition, in [2], the IC50 at 24 h was found to be 78.9 ± 1.9 µM. Besides, the “Neuroprotective effect in 6-OHDA model at tenfold reduced concentration” value in data set [4] is listed as “neuroprotective effect was not preserved”. Moreover, the “Reduction of ROS level” value in [6] is 34%. The “Decrease of ROS formation” value turned out to be 19% in data set [7] (1 µM) and 40% in data set [7] (10 µM). For the same compound, the figures for the IC50 in the data set with KB tumor cells and in the data set on A 549 tumor cells were 22.7 µM and 34 µM, respectively.
As for `C[n+]1ccc(-c2cc[n+](C)cc2)cc1` [PQ, paraquat], the “Increase of ROS levels in Neuro2a cells by the neurotoxin” value in [7] (1 h after adding to the cell suspension) turned out to be 39%. The “Effect on ROS formation in Neuro2a cells” value in [7] (after 30 min) is “insignificant”.
Regarding neoechinulin E, in [9] (setting [15]), the IC50 is 46 µM.
`NCCc1cc(O)c(O)cc1O` [6-OHDA, 6-hydroxydopamine, reference compound]: the “Increase of ROS level in Neuro2a cells by the neurotoxin” value in data set [6] (30 min after addition to the cell suspension) came to 30%.
`CC(=O)NCC(=O)c1c[nH]c2cc(O)ccc12` [Compound 1, 6-hydroxy-N-acetyl-β-oxotryptamine]: in [1], the “DPPH radicals scavenged” value was found to be 48%. The same compound yielded an IC50 at 24 h in [2] of over 100 µM. In addition, the “Cytotoxicity against Neuro2a cells” value in [3] is “not cytotoxic; also recorded: non-cytotoxic”. Further, in data set [6], the “Reduction of ROS level” value came to 18%. In addition, the “Decrease of ROS formation” value in [7] (10 µM) stood at 35%.
Consider `OCc1cc(O)c(Cc2cc(O)ccc2O)c(Cl)c1O` [Terrestrol G], for which the IC50 in data set [9] (read-out: DPPH-scavenging IC50) is 4.1 µM.
For `COc1c(-c2ccc(O)c(O)c2)cc(OC)c2c1oc1cc(O)c(O)cc12` [Candidusin B, reference compound], the DPPH radical scavenging in data set [9] (100 µg/mL) is reported as 59%.
Turning to `Cc1cc(O)c(C)c(O)c1C(=O)O` [Compound 2, 3-methylorsellinic acid], the “DPPH radicals scavenged” value in [1] worked out at 10%. Also, the IC50 at 24 h in [2] is over 100 µM. The “Cytotoxicity against Neuro2a cells” value in data set [3] is listed as “not cytotoxic; also recorded: non-cytotoxic”. Moreover, the “Effect on 6-OHDA-treated cell viability” value in data set [4] (setting [16]) is reported as “no neuroprotective effect”. Moreover, the “Effect on viability of PQ-treated cells” value in data set [5] is listed as “did not exhibit any protective effect”. The “Reduction of ROS level” value in data set [6] is on record as 30%. Also, the “Effect on ROS formation in PQ-treated cells” value in data set [7] (added 1 h before PQ (500 µM)) was “reduced ROS formation”.
For `CN1C(=O)[C@]23CC4=CC=C[C@H](O)[C@H]4N2C(=O)[C@@]1(CO)SS3` [Gliotoxin], in data set [9] (setting [15]), the IC50 was 5.2 µM.

The record behind these values is article PMC6265791, “Neuroprotective Activity of Some Marine Fungal Metabolites in the 6-Hydroxydopamin- and Paraquat-Induced Parkinson’s Disease Models” (Marine Drugs, 2018).
